± gives the expanded uncertainty stated by the source.
Experiment: activity coefficient (dimensionless); of the first substance listed, at infinite dilution; xn = mol fraction of the nth substance listed
Settings: 101.33 kPa, Liquid, Chromatography, x1 = 0

Structure (SMILES)	activity coefficient (318.15 K)	activity coefficient (328.15 K)	activity coefficient (338.15 K)	activity coefficient (348.15 K)	activity coefficient (358.15 K)	activity coefficient (368.15 K)	activity coefficient (298.15 K)	activity coefficient (308.15 K)
CCCC(C)=O [pentan-2-one] + CC[N+]1(C)CCOCC1.N#CN=C=[N-]	5.08 ± 0.35	5.26 ± 0.36	5.45 ± 0.37	5.63 ± 0.38	5.81 ± 0.4	5.98 ± 0.41	–	–
CCC(C)O (configuration not stated) [butan-2-ol] + CC[N+]1(C)CCOCC1.N#CN=C=[N-]	2.98 ± 0.2	2.94 ± 0.2	2.9 ± 0.2	2.86 ± 0.19	2.83 ± 0.19	2.81 ± 0.19	–	–
CCC(C)(C)OC [2-methoxy-2-methylbutane] + CC[N+]1(C)CCOCC1.N#CN=C=[N-]	–	55.7 ± 3.8	57.9 ± 4	60 ± 4.1	62.2 ± 4.3	64.3 ± 4.4	–	–
c1ccncc1 [pyridine] + CC[N+]1(C)CCOCC1.N#CN=C=[N-]	1.74 ± 0.12	1.81 ± 0.12	1.88 ± 0.13	1.96 ± 0.13	2.03 ± 0.14	2.1 ± 0.14	–	–
CCCCO [butan-1-ol] + CC[N+]1(C)CCOCC1.N#CN=C=[N-]	3.08 ± 0.21	3.02 ± 0.21	2.98 ± 0.2	2.94 ± 0.2	2.9 ± 0.2	2.86 ± 0.19	–	–
COC(C)(C)C [2-methoxy-2-methylpropane] + CC[N+]1(C)CCOCC1.N#CN=C=[N-]	–	33.1 ± 2.3	34.4 ± 2.4	35.6 ± 2.4	36.8 ± 2.5	38 ± 2.6	–	–
CO [methanol] + CC[N+]1(C)CCOCC1.N#CN=C=[N-]	0.617 ± 0.043	0.631 ± 0.044	0.645 ± 0.044	0.659 ± 0.045	0.672 ± 0.046	0.684 ± 0.046	–	–
C=Cc1ccccc1 [styrene] + CC[N+]1(C)CCOCC1.N#CN=C=[N-]	6.38 ± 0.43	6.59 ± 0.45	6.81 ± 0.46	7.01 ± 0.48	7.22 ± 0.49	7.43 ± 0.51	–	–
CCCCCCCCC [nonane] + CC[N+]1(C)CCOCC1.N#CN=C=[N-]	1540 ± 110	1350 ± 93	1190 ± 82	1050 ± 73	945 ± 65	850 ± 59	–	–
C#CCCCC [1-hexyne] + CC[N+]1(C)CCOCC1.N#CN=C=[N-]	24.8 ± 1.7	25.6 ± 1.8	26.4 ± 1.8	27.4 ± 1.9	28.1 ± 1.9	28.9 ± 2	–	–
CCCCCCC [heptane] + CC[N+]1(C)CCOCC1.N#CN=C=[N-]	729 ± 50	645 ± 44	574 ± 40	–	–	–	953 ± 66	831 ± 57
Cc1ccc(C)cc1 [1,4-dimethylbenzene] + CC[N+]1(C)CCOCC1.N#CN=C=[N-]	13.4 ± 0.9	13.7 ± 0.9	14 ± 1	14.3 ± 1	14.6 ± 1	14.9 ± 1	–	–
CCC[N+](=O)[O-] [1-nitropropane] + CC[N+]1(C)CCOCC1.N#CN=C=[N-]	2.29 ± 0.16	2.39 ± 0.16	2.49 ± 0.17	2.59 ± 0.18	2.68 ± 0.18	2.78 ± 0.19	–	–
CCc1ccccc1 [ethylbenzene] + CC[N+]1(C)CCOCC1.N#CN=C=[N-]	15.1 ± 1	15.3 ± 1	15.5 ± 1.1	15.7 ± 1.1	15.8 ± 1.1	16 ± 1.1	–	–
CCCCCO [pentan-1-ol] + CC[N+]1(C)CCOCC1.N#CN=C=[N-]	4.78 ± 0.33	4.7 ± 0.32	4.63 ± 0.32	4.56 ± 0.31	4.49 ± 0.31	4.43 ± 0.3	–	–
COC(C)=O [methyl ethanoate] + CC[N+]1(C)CCOCC1.N#CN=C=[N-]	2.86 ± 0.2	3.02 ± 0.21	3.18 ± 0.22	3.34 ± 0.23	3.5 ± 0.24	3.65 ± 0.25	–	–
CCCC(=O)OC [methyl butanoate] + CC[N+]1(C)CCOCC1.N#CN=C=[N-]	9.27 ± 0.63	9.53 ± 0.65	9.79 ± 0.67	10 ± 0.7	10.3 ± 0.7	10.5 ± 0.7	–	–
CCC(=O)CC [pentan-3-one] + CC[N+]1(C)CCOCC1.N#CN=C=[N-]	5.23 ± 0.36	5.44 ± 0.37	5.64 ± 0.38	5.84 ± 0.4	6.03 ± 0.41	6.23 ± 0.42	–	–
CC(C)(C)O [2-methylpropan-2-ol] + CC[N+]1(C)CCOCC1.N#CN=C=[N-]	2.77 ± 0.19	2.78 ± 0.19	2.8 ± 0.19	2.82 ± 0.19	2.83 ± 0.19	2.85 ± 0.19	–	–
CCOC(C)(C)C [2-ethoxy-2-methylpropane] + CC[N+]1(C)CCOCC1.N#CN=C=[N-]	–	105 ± 7	108 ± 7	111 ± 8	113 ± 8	116 ± 8	–	–
CCO [ethanol] + CC[N+]1(C)CCOCC1.N#CN=C=[N-]	1.2 ± 0.08	1.2 ± 0.08	1.21 ± 0.08	1.21 ± 0.08	1.22 ± 0.08	1.22 ± 0.08	–	–
